From patent US20250059171A1 (Hoffmann-La Roche Inc., priority 2021, published 2025)
Where two headings read alike, the source gives them in different places.

Columns and labels:
[1] = target: SARS-CoV-2 3CLpro (Severe acute respiratory syndrome coronavirus 2, UniProt P0DTD1); test: biochemical
[2] = target: HCoV-229E 3CLpro (Human coronavirus 229E, UniProt P0C6X1); test: HCoV-229E 3CLpro inhibition assay (FRET); format: biochemical
[3] = target: SARS-CoV 3CLpro (Severe acute respiratory syndrome coronavirus, UniProt P0C6X7); test: biochemical
[4] = target: MERS-CoV 3CLpro (Middle East respiratory syndrome-related coronavirus, UniProt K9N7C7); test: biochemical
Sequence of MERS-CoV 3CLpro (K9N7C7 3248-3553): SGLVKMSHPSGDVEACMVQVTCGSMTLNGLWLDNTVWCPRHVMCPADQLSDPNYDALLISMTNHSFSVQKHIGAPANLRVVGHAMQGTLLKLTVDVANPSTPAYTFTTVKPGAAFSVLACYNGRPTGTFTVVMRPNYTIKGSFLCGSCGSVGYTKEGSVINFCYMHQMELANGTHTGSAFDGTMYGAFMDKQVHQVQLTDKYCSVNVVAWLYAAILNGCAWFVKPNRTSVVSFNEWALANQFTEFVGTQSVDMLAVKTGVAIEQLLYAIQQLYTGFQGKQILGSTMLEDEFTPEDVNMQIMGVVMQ

Sequence of HCoV-229E 3CLpro (P0C6X1 2966-3267): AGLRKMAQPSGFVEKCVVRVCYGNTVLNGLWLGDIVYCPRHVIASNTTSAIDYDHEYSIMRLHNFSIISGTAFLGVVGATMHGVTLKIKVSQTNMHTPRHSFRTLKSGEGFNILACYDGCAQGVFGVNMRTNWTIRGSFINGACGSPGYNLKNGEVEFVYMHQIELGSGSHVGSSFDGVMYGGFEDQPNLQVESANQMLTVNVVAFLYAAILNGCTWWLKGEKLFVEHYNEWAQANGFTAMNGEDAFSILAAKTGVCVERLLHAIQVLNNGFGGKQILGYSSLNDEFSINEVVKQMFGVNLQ

Structure (SMILES)	IC50 [1] [nM]	IC50 [2] [nM]	IC50 [3] [nM]	IC50 [4] [nM]	IC50 ([1]; read-out: IC50 in SARS-CoV-2 3CLpro assay) [nM]
CCC(C)[C@H](NC(=O)C1(F)CCC1)C(=O)N1C[C@@H]2CCC[C@@H]2[C@H]1C(=O)NN(C[C@@H]1CCNC1=O)C(=O)[C@H](F)Cl (stereo in doubt) [Example 125, N-[(1S,2S)-1-[(3S,3aS,6aR)-3-[[[(2R)-2-chloro-2-fluoro-acetyl]-[[(3S)-2-oxopyrrolidin-3-yl]methyl]amino]carbamoyl]-3,3a,4,5,6,6a-hexahydro-1H-cyclopenta[c]pyrrole-2-carbonyl]-2-methyl-butyl]-1-fluoro-cyclobutanecarboxamide]	10	42	12	114	
CC(C)(C)[C@H](NC(=O)C(F)(F)F)C(=O)N1C[C@H]2[C@@H]([C@H]1C(=O)NN(C[C@@H]1CCNC1=O)C(=O)[C@H](F)Cl)C2(C)C [Example 1, N-[(1S)-1-[(1R,2S,5S)-2-[[[(2R)-2-chloro-2-fluoro-acetyl]-[[(3S)-2-oxopyrrolidin-3-yl]methyl]amino]carbamoyl]-6,6-dimethyl-3-azabicyclo[3.1.0]hexane-3-carbonyl]-2,2-dimethyl-propyl]-2,2,2-trifluoro-acetamide]	10	35	15	115	
CC1(C)[C@@H]2[C@@H](C(=O)NN(C[C@@H]3CCNC3=O)C(=O)[C@H](F)Cl)N(C(=O)[C@@H](NC(=O)C(F)(F)F)C3CC3)C[C@@H]21 [Example 2, N-[(1S)-2-[(1R,2S,5S)-2-[[[(2R)-2-chloro-2-fluoro-acetyl]-[[(3S)-2-oxopyrrolidin-3-yl]methyl]amino]carbamoyl]-6,6-dimethyl-3-azabicyclo[3.1.0]hexan-3-yl]-1-cyclopropyl-2-oxo-ethyl]-2,2,2-trifluoro-acetamide]	19	41	30	177	
CC(C)C[C@H](NC(=O)C(F)(F)F)C(=O)N1C[C@H]2[C@@H]([C@H]1C(=O)NN(C[C@@H]1CCNC1=O)C(=O)[C@H](F)Cl)C2(C)C [Example 3, N-[(1S)-1-[(1R,2S,5S)-2-[[[(2R)-2-chloro-2-fluoro-acetyl]-[[(3S)-2-oxopyrrolidin-3-yl]methyl]amino]carbamoyl]-6,6-dimethyl-3-azabicyclo[3.1.0]hexane-3-carbonyl]-3-methyl-butyl]-2,2,2-trifluoro-acetamide]	14	38	20	174	
CC(C)(C)[C@H](NC(=O)C(F)(F)F)C(=O)N1C[C@@H]2CCC[C@@H]2[C@H]1C(=O)NN(C[C@@H]1CCNC1=O)C(=O)[C@H](F)Cl [Example 4, N-[(1S)-1-[(3S,3aS,6aR)-3-[[[(2R)-2-chloro-2-fluoro-acetyl]-[[(3S)-2-oxopyrrolidin-3-yl]methyl]amino]carbamoyl]-3,3a,4,5,6,6a-hexahydro-1H-cyclopenta[c]pyrrole-2-carbonyl]-2,2-dimethyl-propyl]-2,2,2-trifluoro-acetamide]		39	16	70	6
CC(C)(C)[C@H](NC(=O)C(F)(F)F)C(=O)N1C[C@@H]2CC[C@@H]2[C@H]1C(=O)NN(C[C@@H]1CCNC1=O)C(=O)[C@H](F)Cl [Example 5, N-[(1S)-1-[(1S,2S,5R)-2-[[[(2R)-2-chloro-2-fluoro-acetyl]-[[(3S)-2-oxopyrrolidin-3-yl]methyl]amino]carbamoyl]-3-azabicyclo[3.2.0]heptane-3-carbonyl]-2,2-dimethyl-propyl]-2,2,2-trifluoro-acetamide]	10	104	19	303	
C[C@@H]1C[C@@H](C(=O)NN(C[C@@H]2CCNC2=O)C(=O)[C@H](F)Cl)N(C(=O)[C@@H](NC(=O)C(F)(F)F)C(C)(C)C)C1 [Example 7, N-[(1S)-1-[(2S,4R)-2-[[[(2R)-2-chloro-2-fluoro-acetyl]-[[(3S)-2-oxopyrrolidin-3-yl]methyl]amino]carbamoyl]-4-methyl-pyrrolidine-1-carbonyl]-2,2-dimethyl-propyl]-2,2,2-trifluoro-acetamide]	8	193	17	379	
CC1(C)C[C@@H](C(=O)NN(C[C@@H]2CCNC2=O)C(=O)[C@H](F)Cl)N(C(=O)[C@@H](NC(=O)C(F)(F)F)C(C)(C)C)C1 [Example 8, N-[(1S)-1-[(2S)-2-[[[(2R)-2-chloro-2-fluoro-acetyl]-[[(3S)-2-oxopyrrolidin-3-yl]methyl]amino]carbamoyl]-4,4-dimethyl-pyrrolidine-1-carbonyl]-2,2-dimethyl-propyl]-2,2,2-trifluoro-acetamide]	10	42	25	136	
CC(C)(C)[C@H](NC(=O)C(F)(F)F)C(=O)N1C[C@@H]2C[C@@H]2[C@H]1C(=O)NN(C[C@@H]1CCNC1=O)C(=O)[C@H](F)Cl [Example 9, N-[(1S)-1-[(1S,2S,5R)-2-[[[(2R)-2-chloro-2-fluoro-acetyl]-[[(3S)-2-oxopyrrolidin-3-yl]methyl]amino]carbamoyl]-3-azabicyclo[3.1.0]hexane-3-carbonyl]-2,2-dimethyl-propyl]-2,2,2-trifluoro-acetamide]	12	939	38	2780	
CC(C)(C)[C@H](NC(=O)C(F)(F)F)C(=O)N1C[C@H]2[C@@H]([C@H]1C(=O)NN(Cc1cc[nH]n1)C(=O)[C@H](F)Cl)C2(C)C [Example 10, N-[(1S)-1-[(1R,2S,5S)-2-[[[(2R)-2-chloro-2-fluoro-acetyl]-(1H-pyrazol-3-ylmethyl)amino]carbamoyl]-6,6-dimethyl-3-azabicyclo[3.1.0]hexane-3-carbonyl]-2,2-dimethyl-propyl]-2,2,2-trifluoro-acetamide]	21	1240	373	3040	
CC(C)(C)C(=O)N[C@H](C(=O)N1C[C@H]2[C@@H]([C@H]1C(=O)NN(C[C@@H]1CCNC1=O)C(=O)[C@H](F)Cl)C2(C)C)C(C)(C)C [Example 11, N-[(1S)-1-[(1R,2S,5S)-2-[[[(2R)-2-chloro-2-fluoro-acetyl]-[[(3S)-2-oxopyrrolidin-3-yl]methyl]amino]carbamoyl]-6,6-dimethyl-3-azabicyclo[3.1.0]hexane-3-carbonyl]-2,2-dimethyl-propyl]-2,2-dimethyl-propanamide]	218	56	34	260	
CC(C)(C)[C@H](NC(=O)C1CC1)C(=O)N1C[C@H]2[C@@H]([C@H]1C(=O)NN(C[C@@H]1CCNC1=O)C(=O)[C@H](F)Cl)C2(C)C [Example 12, N-[(1S)-1-[(1R,2S,5S)-2-[[[(2R)-2-chloro-2-fluoro-acetyl]-[[(3S)-2-oxopyrrolidin-3-yl]methyl]amino]carbamoyl]-6,6-dimethyl-3-azabicyclo[3.1.0]hexane-3-carbonyl]-2,2-dimethyl-propyl]cyclopropanecarboxamide]	15	26	17	106	
